Drawing on patent US20240043427A1 (Gilead Sciences, Inc., priority 2020, published 2024), this text covers IC50 and EC50 for 26 molecules.

The structures appear in SMILES notation. Bounds are passed on as bounds.

Assay [1] deals with T1, CD73 (Homo sapiens (Human), UniProt P21589). The class given is biochemical. The note with it: 1 mM NaH2PO4 in enzyme buffer, CD73 0.3 nM, AMP 15 uM.
Description: Compound serial dilutions were pre-spotted into Thermo Nunc assay plate. 50 uL CD73 enzyme buffer (CD73 purchased from R&D system=0.6 nM, 25 mM Tris, pH 7.4, 5 mM MgCl2, 1 mM NaH2PO4) was added into the assay plate and incubate for 15 mins. […] After incubation for 60 mins, the supernatant (20 uL) was transferred into 384-well NUNC plate pre-filled with 60 uL Quench buffer (80% organic and 20% water+0.1% FA) with internal standard. The plate was spun down at 4500 rpm for 20 mins, then 20 uL of supernatant was transferred to another Nunc plate prefilled with 80 uL of water. The samples were analyzed using Rapid fire.
Assay [2] addresses T1, CD73. Briefly: MDA-MB-231 Cell Based CD73 Activity Assay (DMEM). The note with it: MDA-MB-231-GFP cells, DMEM medium with 10% human plasma, 200 uM AMP.

T1 sequence (P21589 27-574): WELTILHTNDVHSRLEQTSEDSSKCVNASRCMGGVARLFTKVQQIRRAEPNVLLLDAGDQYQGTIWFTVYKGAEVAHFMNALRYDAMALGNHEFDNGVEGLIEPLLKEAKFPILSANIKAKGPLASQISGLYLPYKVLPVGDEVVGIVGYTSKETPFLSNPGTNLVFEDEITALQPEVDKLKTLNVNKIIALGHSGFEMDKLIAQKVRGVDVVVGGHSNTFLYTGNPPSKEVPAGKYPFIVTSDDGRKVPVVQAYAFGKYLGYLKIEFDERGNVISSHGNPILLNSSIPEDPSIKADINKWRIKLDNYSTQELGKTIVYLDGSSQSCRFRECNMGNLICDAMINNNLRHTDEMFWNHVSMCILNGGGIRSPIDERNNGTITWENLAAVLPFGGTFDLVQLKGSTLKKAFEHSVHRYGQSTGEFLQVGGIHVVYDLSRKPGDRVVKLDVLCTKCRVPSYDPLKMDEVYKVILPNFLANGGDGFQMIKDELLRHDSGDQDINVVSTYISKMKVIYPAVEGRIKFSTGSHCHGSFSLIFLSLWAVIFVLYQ

Molecule `O=c1[nH]cc(-c2cc([C@H]3C[C@@H]3c3ccc(OC(F)F)cn3)c3nccn3n2)c(=O)[nH]1` [Example 137, 5-(8-((1S,2S)-2-(5-(difluoromethoxy)pyridin-2-yl)cyclopropyl)imidazo[1,2-b]pyridazin-6-yl)pyrimidine-2,4(1H,3H)-dione] displayed an IC50 against CD73 [1] of 1.28 nM. The molecule further came in with an EC50 at CD73 [2] of 4.68 nM.

With `O=c1[nH]cc(-c2cc(N3CC[C@@H](OC(F)(F)F)C3)c3nccn3n2)c(=O)[nH]1` [Example 187, 5-[8-[(3R)-3-(trifluoromethoxy)pyrrolidin-1-yl]imidazo[1,2-b]pyridazin-6-yl]-1H-pyrimidine-2,4-dione], half-maximal inhibition against CD73 [1] (IC50) required 2.76 nM. The midpoint of the response on CD73 [2], the EC50, lay at 12.6 nM.

Take `O=c1[nH]cc(-c2cc([C@H]3C[C@@H]3c3ccc4c(C(F)(F)F)cn(CC(F)(F)F)c4n3)c3nccn3n2)c(=O)[nH]1` [Example 701, 5-(8-((1S,2S)-2-(1-(2,2,2-trifluoroethyl)-3-(trifluoromethyl)-1H-pyrrolo[2,3-b]pyridin-6-yl)cyclopropyl)imidazo[1,2-b]pyridazin-6-yl)pyrimidine-2,4(1H,3H)-dione]: on CD73 [1], the IC50 stood at 3.04 nM. Moreover, the EC50 at CD73 [2] is 2.56 nM.

The molecule `O=c1[nH]cc(-c2cc([C@H]3C[C@@H]3c3ccc4cnn(CC(F)F)c4c3F)c3nccn3n2)c(=O)[nH]1` [Example 129, 5-(8-((1S,2S)-2-(1-(2,2-difluoroethyl)-7-fluoro-1H-indazol-6-yl)cyclopropyl)imidazo[1,2-b]pyridazin-6-yl)pyrimidine-2,4(1H,3H)-dione] had an IC50 at CD73 [1] of 1.11 nM. This molecule also gave an EC50 at CD73 [2] of 0.3 nM.

On CD73 [1], `O=c1[nH]cc(-c2cc(N3C[C@H](OC(F)F)C(F)(F)C3)c3nccn3n2)c(=O)[nH]1` [Example 201, 5-[8-[(4S)-4-(difluoromethoxy)-3,3-difluoro-pyrrolidin-1-yl]imidazo[1,2-b]pyridazin-6-yl]-1H-pyrimidine-2,4-dione] displayed an IC50 of 1.11 nM. Besides, on CD73 [2], a half-maximal response (EC50) required 6.39 nM.

On CD73 [1], `O=c1[nH]cc(-c2cc([C@H]3C[C@@H]3c3ccccc3Cl)c3nccn3n2)c(=O)[nH]1` (racemic) [Example 555, 5-(8-((1S,2S)-2-(2-chlorophenyl)cyclopropyl)imidazo[1,2-b]pyridazin-6-yl)pyrimidine-2,4(1H,3H)-dione] showed an IC50 of 13.3 nM. Besides, the EC50 at CD73 [2] came to 267 nM.

Turning to `CC1(C)C2CN(c3cc(-c4c[nH]c(=O)[nH]c4=O)nn4ccnc34)CC21` (stereo not shown) [Example 228, 5-(8-(6,6-dimethyl-3-azabicyclo[3.1.0]hexan-3-yl)imidazo[1,2-b]pyridazin-6-yl)pyrimidine-2,4(1H,3H)-dione], the IC50 at CD73 [1] was 31.2 nM. Also, the midpoint of the response on CD73 [2], the EC50, lay at 146 nM.

The molecule `O=c1[nH]cc(-c2cc([C@H]3C[C@@H]3c3ccc4cnn(CC(F)(F)F)c4c3)c3nccn3n2)c(=O)[nH]1` [Example 318, 5-(8-((1S,2S)-2-(1-(2,2,2-trifluoroethyl)-1H-indazol-6-yl)cyclopropyl)imidazo[1,2-b]pyridazin-6-yl)pyrimidine-2,4(1H,3H)-dione] gave an IC50 against CD73 [1] of 0.43 nM. For the same molecule, it took 0.06 nM to reach a half-maximal effect at CD73 [2] (EC50).

At CD73 [1], `O=c1[nH]cc(-c2cc([C@H]3C[C@@H]3c3cc(C(F)(F)F)c4ncccc4c3)c3ncc(F)n3n2)c(=O)[nH]1` [Example 134, 5-(3-fluoro-8-((1S,2S)-2-(8-(trifluoromethyl)quinolin-6-yl)cyclopropyl)imidazo[1,2-b]pyridazin-6-yl)pyrimidine-2,4(1H,3H)-dione] showed an IC50 of 1.17 nM. The molecule also displayed an EC50 on CD73 [2] of 22.7 nM.

On CD73 [1], `O=c1[nH]cc(-c2cc([C@H]3C[C@@H]3c3ncc4cnn(CC(F)(F)F)c4c3F)c3nccn3n2)c(=O)[nH]1` (racemic) [Example 615, 5-(8-((1S,2S)-2-(7-fluoro-1-(2,2,2-trifluoroethyl)-1H-pyrazolo[4,3-c]pyridin-6-yl)cyclopropyl)imidazo[1,2-b]pyridazin-6-yl)pyrimidine-2,4(1H,3H)-dione] had an IC50 of 1.54 nM. The molecule further had an EC50 at CD73 [2] of 0.28 nM.

Regarding `O=C(c1cccc(C2CN(c3cc(-c4c[nH]c(=O)[nH]c4=O)nn4ccnc34)C2)c1)N1CC(F)(F)C1` [Example 268, 5-(8-(3-(3-(3,3-difluoroazetidine-1-carbonyl)phenyl)azetidin-1-yl)imidazo[1,2-b]pyridazin-6-yl)pyrimidine-2,4(1H,3H)-dione], inhibition on CD73 [1] was half-maximal at 97 nM (IC50). Moreover, a half-maximal response on CD73 [2] (EC50) required 135 nM.

`O=c1[nH]cc(-c2cc([C@H]3C[C@@H]3c3ccc4cnn(CC(F)F)c4c3)c3nccn3n2)c(=O)[nH]1` [Example 125, 5-(8-((1S,2S)-2-(1-(2,2-difluoroethyl)-1H-indazol-6-yl)cyclopropyl)imidazo[1,2-b]pyridazin-6-yl)pyrimidine-2,4(1H,3H)-dione]: at CD73 [1], it took 0.71 nM to reach half-maximal inhibition (IC50). In addition, the response on CD73 [2] was half-maximal at 0.17 nM (EC50).

Consider `CC1(C)C(=O)N(CC(F)(F)F)c2cc([C@H]3C[C@@H]3c3cc(-c4c[nH]c(=O)[nH]c4=O)nn4c(F)cnc34)cnc21` [Example 723, 5-[8-[(1S,2S)-2-[3,3-dimethyl-2-oxo-1-(2,2,2-trifluoroethyl)pyrrolo[3,2-b]pyridin-6-yl]cyclopropyl]-3-fluoro-imidazo[1,2-b]pyridazin-6-yl]-1H-pyrimidine-2,4-dione], for which, on CD73 [1], it took 2.75 nM to reach half-maximal inhibition (IC50). Also, the EC50 on CD73 [2] was 1.04 nM.

As for `O=c1[nH]cc(-c2cc(NCCc3ccccc3)c3nccn3n2)c(=O)[nH]1` [Example 487, 5-(8-(phenethylamino)imidazo[1,2-b]pyridazin-6-yl)pyrimidine-2,4(1H,3H)-dione], on CD73 [1], it took 27.9 nM to reach half-maximal inhibition (IC50). Besides, it took 81 nM to reach a half-maximal effect at CD73 [2] (EC50).

In turn, `CC(C)NC(=O)OCC(F)(F)COc1cc(-c2c[nH]c(=O)[nH]c2=O)nn2ccnc12` [Example 694, 3-((6-(2,4-dioxo-1,2,3,4-tetrahydropyrimidin-5-yl)imidazo[1,2-b]pyridazin-8-yl)oxy)-2,2-difluoropropyl isopropylcarbamate] returned an IC50 on CD73 [1] of 0.61 nM. This molecule also displayed an EC50 on CD73 [2] of 0.23 nM.

`O=c1[nH]cc(-c2cc(N3CC(OCC(F)F)C(F)(F)C3)c3nccn3n2)c(=O)[nH]1` (stereo not shown) [Example 524, 5-(8-(4-(2,2-difluoroethoxy)-3,3-difluoropyrrolidin-1-yl)imidazo[1,2-b]pyridazin-6-yl)pyrimidine-2,4(1H,3H)-dione]: the IC50 on CD73 [1] turned out to be 3.75 nM. For the same molecule, on CD73 [2], the midpoint of the response, the EC50, lay at 11 nM.

On to `CC(F)(F)CN1C(=O)C2(CC2)c2ccc([C@H]3C[C@@H]3c3cc(-c4c[nH]c(=O)[nH]c4=O)nn4ccnc34)cc21` (racemic) [Example 733, 5-(8-((1S,2S)-2-(1′-(2,2-difluoropropyl)-2′-oxospiro[cyclopropane-1,3′-indolin]-6′-yl)cyclopropyl)imidazo[1,2-b]pyridazin-6-yl)pyrimidine-2,4(1H,3H)-dione], for which the IC50 against CD73 [1] came to 2.72 nM. A half-maximal effect on CD73 [2] (EC50) was put at 0.11 nM.

With `CC(C)NC(=O)OCC(F)(F)COc1cc(-c2c[nH]c(=O)[nH]c2=O)nn2ncnc12` [Example 438, 3-((6-(2,4-dioxo-1,2,3,4-tetrahydropyrimidin-5-yl)-[1,2,4]triazolo[1,5-b]pyridazin-8-yl)oxy)-2,2-difluoropropyl isopropylcarbamate], the IC50 on CD73 [1] was 0.14 nM. The molecule also had an EC50 at CD73 [2] of 0.1 nM.

For `O=c1[nH]cc(-c2cc([C@H]3C[C@@H]3c3cc(C(F)(F)F)c4ncccc4c3)c3nccn3n2)c(=O)[nH]1` [Example 135, 5-(8-((1S,2S)-2-(8-(trifluoromethyl)quinolin-6-yl)cyclopropyl)imidazo[1,2-b]pyridazin-6-yl)pyrimidine-2,4(1H,3H)-dione], at CD73 [1], 1.99 nM corresponded to half-maximal inhibition (IC50). Moreover, on CD73 [2], the EC50 came out at 44 nM.

As for `O=c1[nH]cc(-c2cc(N3CC(F)(F)C(F)(F)C3)n3ncnc3n2)c(=O)[nH]1` [Example 356, 5-(7-(3,3,4,4-tetrafluoropyrrolidin-1-yl)-[1,2,4]triazolo[1,5-a]pyrimidin-5-yl)pyrimidine-2,4(1H,3H)-dione], the IC50 against CD73 [1] was more than 250 nM. At CD73 [2], the EC50 is 916 nM.

On to `O=c1[nH]cc(-c2cc(N3CC4CC4C3)c3nccn3n2)c(=O)[nH]1` (stereo not shown) [Example 225, 5-(8-(3-azabicyclo[3.1.0]hexan-3-yl)imidazo[1,2-b]pyridazin-6-yl)pyrimidine-2,4(1H,3H)-dione], for which, on CD73 [1], the IC50 was determined as 15.2 nM. Further, the EC50 at CD73 [2] amounted to 106 nM.

For `O=c1[nH]cc(-c2cc([C@H]3C[C@@H]3c3ccc4ncn(CC(F)(F)F)c4c3)c3ncc(F)n3n2)c(=O)[nH]1` [Example 323, 5-(3-fluoro-8-((1S,2S)-2-(1-(2,2,2-trifluoroethyl)-1H-benzo[d]imidazol-6-yl)cyclopropyl)imidazo[1,2-b]pyridazin-6-yl)pyrimidine-2,4(1H,3H)-dione], inhibition at CD73 [1] was half-maximal at 0.51 nM (IC50). The molecule further returned an EC50 on CD73 [2] of 0.06 nM.

Take `CC(C)(O)CCNc1cc(-c2c[nH]c(=O)[nH]c2=O)nn2ccnc12` [Example 485, 5-(8-((3-hydroxy-3-methylbutyl)amino)imidazo[1,2-b]pyridazin-6-yl)pyrimidine-2,4(1H,3H)-dione]: the IC50 on CD73 [1] was more than 250 nM. The same molecule came in with an EC50 on CD73 [2] of 700 nM.

`O=C1N(CC(F)(F)F)c2cc([C@H]3C[C@@H]3c3cc(-c4c[nH]c(=O)[nH]c4=O)nn4c(Cl)cnc34)ccc2C12CC2` [Example 388, 5-(3-chloro-8-((1S,2S)-2-(2′-oxo-1′-(2,2,2-trifluoroethyl)spiro[cyclopropane-1,3′-indolin]-6′-yl)cyclopropyl)imidazo[1,2-b]pyridazin-6-yl)pyrimidine-2,4(1H,3H)-dione]: the midpoint of inhibition against CD73 [1], the IC50, lay at 0.41 nM. The EC50 on CD73 [2] was 0.21 nM.

Regarding `O=c1[nH]cc(-c2cc(OCC(F)(F)c3ccccc3)c3nccn3n2)c(=O)[nH]1` [Example 682, 5-(8-(2,2-difluoro-2-phenylethoxy)imidazo[1,2-b]pyridazin-6-yl)pyrimidine-2,4(1H,3H)-dione], at CD73 [1], the IC50 is 1.59 nM. Besides, the EC50 at CD73 [2] came out at 17.9 nM.

Regarding `COC(=O)c1cccc(C2CCN(c3cc(-c4c[nH]c(=O)[nH]c4=O)nn4ccnc34)C2)c1` (stereo not shown) [Example 264, Methyl 3-(1-(6-(2,4-dioxo-1,2,3,4-tetrahydropyrimidin-5-yl)imidazo[1,2-b]pyridazin-8-yl)pyrrolidin-3-yl)benzoate], half-maximal inhibition against CD73 [1] (IC50) required 5.59 nM. At CD73 [2], this molecule displayed an EC50 of 88 nM.

One may read the IC50 as the concentration needed to halve the response being measured. A word on the EC50: it is the concentration needed to bring the measured effect to its halfway point. Read a low EC50 as a more potent agent.
